Assay results reported in ChEMBL document CHEMBL1641605, “Diphenylpropynone derivatives as probes for imaging β-amyloid plaques in Alzheimer's brains” (Bioorg Med Chem Lett, 2011).
Calls of active or inactive are those of the source. The rule behind the calls is not given here.

Legend:
[1] = target: Amyloid-beta precursor protein (Homo sapiens, UniProt P05067); test: Displacement of [125I]DMIC from Amyloid beta (1 to 42) after 3 hrs by gamma counting
[2] = species: Mus musculus; test: Binding affinity to beta-amyloid in Tg2576 transgenic mouse brain after 3 mins by microscopic analysis; assay type: tissue-based
[3] = species: Mus musculus; test: Binding affinity to beta-amyloid in wild type mouse brain after 3 mins by microscopic analysis; assay type: tissue-based
[4] = test system: Brain; test: Biodistribution in ddY mouse brain assessed as per gram of tissue at 0.3 to 0.5 uCi, iv after 30 mins by gamma counting; assay type: ADME, organism-based; settings: in vivo, 0.5 h
[5] = test system: Heart; test: Biodistribution in ddY mouse heart assessed as per gram of tissue at 0.3 to 0.5 uCi, iv after 30 mins by gamma counting; assay type: ADME, organism-based; settings: in vivo, 0.5 h
[6] = test system: Pancreas; test: Biodistribution in ddY mouse pancreas assessed as per gram of tissue at 0.3 to 0.5 uCi, iv after 30 mins by gamma counting; assay type: ADME, organism-based; settings: in vivo, 0.5 h
[7] = test system: Stomach; test: Biodistribution in ddY mouse stomach assessed as per gram of tissue at 0.3 to 0.5 uCi, iv after 30 mins by gamma counting; assay type: ADME, organism-based; settings: in vivo, 0.5 h
[8] = test system: Spleen; test: Biodistribution in ddY mouse spleen assessed as per gram of tissue at 0.3 to 0.5 uCi, iv after 30 mins by gamma counting; assay type: ADME, organism-based; settings: in vivo, 0.5 h
[9] = test system: Intestine; test: Biodistribution in ddY mouse intestine assessed as per organ at 0.3 to 0.5 uCi, iv after 30 mins by gamma counting; assay type: ADME, organism-based; settings: in vivo, 0.5 h
[10] = test system: Kidney; test: Biodistribution in ddY mouse kidney assessed as per gram of tissue at 0.3 to 0.5 uCi, iv after 30 mins by gamma counting; assay type: ADME, organism-based; settings: in vivo, 0.5 h
[11] = test system: Liver; test: Biodistribution in ddY mouse liver assessed as per gram of tissue at 0.3 to 0.5 uCi, iv after 30 mins by gamma counting; assay type: ADME, organism-based; settings: in vivo, 0.5 h
[12] = test system: Blood; test: Biodistribution in ddY mouse blood assessed as per gram of tissue at 0.3 to 0.5 uCi, iv after 30 mins by gamma counting; assay type: ADME, organism-based; settings: in vivo, 0.5 h
[13] = test system: Brain; test: Biodistribution in ddY mouse brain assessed as per gram of tissue at 0.3 to 0.5 uCi, iv after 10 mins by gamma counting; assay type: ADME, organism-based; settings: in vivo
[14] = test system: Heart; test: Biodistribution in ddY mouse heart assessed as per gram of tissue at 0.3 to 0.5 uCi, iv after 10 mins by gamma counting; assay type: ADME, organism-based; settings: in vivo
[15] = test system: Pancreas; test: Biodistribution in ddY mouse pancreas assessed as per gram of tissue at 0.3 to 0.5 uCi, iv after 10 mins by gamma counting; assay type: ADME, organism-based; settings: in vivo
[16] = test system: Stomach; test: Biodistribution in ddY mouse stomach assessed as per gram of tissue at 0.3 to 0.5 uCi, iv after 10 mins by gamma counting; assay type: ADME, organism-based; settings: in vivo
[17] = test system: Spleen; test: Biodistribution in ddY mouse spleen assessed as per gram of tissue at 0.3 to 0.5 uCi, iv after 10 mins by gamma counting; assay type: ADME, organism-based; settings: in vivo
[18] = test system: Intestine; test: Biodistribution in ddY mouse intestine assessed as per organ at 0.3 to 0.5 uCi, iv after 10 mins by gamma counting; assay type: ADME, organism-based; settings: in vivo
[19] = test system: Kidney; test: Biodistribution in ddY mouse kidney assessed as per gram of tissue at 0.3 to 0.5 uCi, iv after 10 mins by gamma counting; assay type: ADME, organism-based; settings: in vivo
[20] = test system: Liver; test: Biodistribution in ddY mouse liver assessed as per gram of tissue at 0.3 to 0.5 uCi, iv after 10 mins by gamma counting; assay type: ADME, organism-based; settings: in vivo
[21] = test system: Blood; test: Biodistribution in ddY mouse blood assessed as per gram of tissue at 0.3 to 0.5 uCi, iv after 10 mins by gamma counting; assay type: ADME, organism-based; settings: in vivo
[22] = test system: Brain; test: Biodistribution in ddY mouse brain assessed as per gram of tissue at 0.3 to 0.5 uCi, iv after 2 mins by gamma counting; assay type: ADME, organism-based; settings: in vivo
[23] = test system: Heart; test: Biodistribution in ddY mouse heart assessed as per gram of tissue at 0.3 to 0.5 uCi, iv after 2 mins by gamma counting; assay type: ADME, organism-based; settings: in vivo
[24] = test system: Pancreas; test: Biodistribution in ddY mouse pancreas assessed as per gram of tissue at 0.3 to 0.5 uCi, iv after 2 mins by gamma counting; assay type: ADME, organism-based; settings: in vivo
[25] = test system: Stomach; test: Biodistribution in ddY mouse stomach assessed as per gram of tissue at 0.3 to 0.5 uCi, iv after 2 mins by gamma counting; assay type: ADME, organism-based; settings: in vivo
[26] = test system: Spleen; test: Biodistribution in ddY mouse spleen assessed as per gram of tissue at 0.3 to 0.5 uCi, iv after 2 mins by gamma counting; assay type: ADME, organism-based; settings: in vivo
[27] = test system: Intestine; test: Biodistribution in ddY mouse intestine assessed as per organ at 0.3 to 0.5 uCi, iv after 2 mins by gamma counting; assay type: ADME, organism-based; settings: in vivo
[28] = test system: Kidney; test: Biodistribution in ddY mouse kidney assessed as per gram of tissue at 0.3 to 0.5 uCi, iv after 2 mins by gamma counting; assay type: ADME, organism-based; settings: in vivo
[29] = test system: Liver; test: Biodistribution in ddY mouse liver assessed as per gram of tissue at 0.3 to 0.5 uCi, iv after 2 mins by gamma counting; assay type: ADME, organism-based; settings: in vivo
[30] = test system: Blood; test: Biodistribution in ddY mouse blood assessed as per gram of tissue at 0.3 to 0.5 uCi, iv after 2 mins by gamma counting; assay type: ADME, organism-based; settings: in vivo
[31] = test system: Blood; test: Biodistribution in ddY mouse blood assessed as per gram of tissue at 0.3 to 0.5 uCi, iv after 60 mins by gamma counting; assay type: ADME, organism-based; settings: in vivo, 1 h
[32] = test system: Liver; test: Biodistribution in ddY mouse liver assessed as per gram of tissue at 0.3 to 0.5 uCi, iv after 60 mins by gamma counting; assay type: ADME, organism-based; settings: in vivo, 1 h
[33] = test system: Kidney; test: Biodistribution in ddY mouse kidney assessed as per gram of tissue at 0.3 to 0.5 uCi, iv after 60 mins by gamma counting; assay type: ADME, organism-based; settings: in vivo, 1 h
[34] = test system: Intestine; test: Biodistribution in ddY mouse intestine assessed as per organ at 0.3 to 0.5 uCi, iv after 60 mins by gamma counting; assay type: ADME, organism-based; settings: in vivo, 1 h
[35] = test system: Spleen; test: Biodistribution in ddY mouse spleen assessed as per gram of tissue at 0.3 to 0.5 uCi, iv after 60 mins by gamma counting; assay type: ADME, organism-based; settings: in vivo, 1 h
[36] = test system: Stomach; test: Biodistribution in ddY mouse stomach assessed as per gram of tissue at 0.3 to 0.5 uCi, iv after 60 mins by gamma counting; assay type: ADME, organism-based; settings: in vivo, 1 h
[37] = test system: Pancreas; test: Biodistribution in ddY mouse pancreas assessed as per gram of tissue at 0.3 to 0.5 uCi, iv after 60 mins by gamma counting; assay type: ADME, organism-based; settings: in vivo, 1 h
[38] = test system: Heart; test: Biodistribution in ddY mouse heart assessed as per gram of tissue at 0.3 to 0.5 uCi, iv after 60 mins by gamma counting; assay type: ADME, organism-based; settings: in vivo, 1 h
[39] = test system: Brain; test: Biodistribution in ddY mouse brain assessed as per gram of tissue at 0.3 to 0.5 uCi, iv after 60 mins by gamma counting; assay type: ADME, organism-based; settings: in vivo, 1 h

Sequence of Amyloid-beta precursor protein (P05067 whole entry): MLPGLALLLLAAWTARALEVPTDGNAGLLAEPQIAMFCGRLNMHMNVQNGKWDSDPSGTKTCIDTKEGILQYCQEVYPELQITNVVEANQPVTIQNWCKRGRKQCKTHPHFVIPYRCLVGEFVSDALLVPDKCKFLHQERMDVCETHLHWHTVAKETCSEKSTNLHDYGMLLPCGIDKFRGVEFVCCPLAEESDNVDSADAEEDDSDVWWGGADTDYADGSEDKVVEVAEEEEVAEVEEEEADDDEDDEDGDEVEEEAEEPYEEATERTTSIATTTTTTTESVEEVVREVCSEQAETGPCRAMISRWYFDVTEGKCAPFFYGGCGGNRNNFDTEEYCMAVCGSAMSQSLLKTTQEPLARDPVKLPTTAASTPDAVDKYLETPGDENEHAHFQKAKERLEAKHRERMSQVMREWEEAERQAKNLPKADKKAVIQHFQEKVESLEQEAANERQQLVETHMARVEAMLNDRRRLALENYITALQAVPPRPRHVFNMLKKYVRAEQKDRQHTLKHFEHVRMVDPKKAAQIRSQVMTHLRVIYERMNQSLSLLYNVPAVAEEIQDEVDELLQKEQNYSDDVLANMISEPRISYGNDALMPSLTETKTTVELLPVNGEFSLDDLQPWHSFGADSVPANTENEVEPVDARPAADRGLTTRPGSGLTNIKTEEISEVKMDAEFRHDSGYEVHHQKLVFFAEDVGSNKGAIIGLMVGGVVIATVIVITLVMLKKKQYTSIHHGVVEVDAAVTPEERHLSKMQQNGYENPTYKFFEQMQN

Work on `O=C(C#Cc1ccc(O)cc1)c1ccc(I)cc1` yielded a Ki [1] of 326 nM.
Work on `CN(C)c1ccc(C#CC(=O)c2ccc(F)cc2)cc1` yielded a Ki [1] of 20.4 nM.
For `CN(C)c1ccc(C#CC(=O)c2ccc(I)cc2)cc1`, the Ki [1] was 6 nM, the Activity [2] was “Active” and the Activity [3] was “inactive”.
`COc1ccc(C#CC(=O)c2ccc(I)cc2)cc1` was tested, and the Ki [1] was 13.7 nM.
Molecule `CN(C)c1ccc(C#CC(=O)c2ccc([125I])cc2)cc1` has a Drug uptake [4] of 0.93 %ID, a Drug uptake [5] of 6.03 %ID and a Drug uptake [6] of 2.57 %ID. For the same molecule, the Drug uptake [7] was 2.35 %ID, the Drug uptake [8] was 5.47 %ID and the Drug uptake [9] was 12.04 %ID. For the same molecule, the Drug uptake [10] was 8.34 %ID, the Drug uptake [11] was 12.02 %ID and the Drug uptake [12] was 3.94 %ID. It also gave a Drug uptake [13] of 1.23 %ID, a Drug uptake [14] of 7.53 %ID and a Drug uptake [15] of 3.39 %ID. It also gave a Drug uptake [16] of 2.97 %ID, a Drug uptake [17] of 5.19 %ID and a Drug uptake [18] of 8.44 %ID. It also gave a Drug uptake [19] of 9.81 %ID, a Drug uptake [20] of 15.29 %ID and a Drug uptake [21] of 5.44 %ID. It also gave a Drug uptake [22] of 1.55 %ID, a Drug uptake [23] of 10 %ID and a Drug uptake [24] of 3.9 %ID. The Drug uptake [25] was 0.75 %ID, the Drug uptake [26] was 4.41 %ID and the Drug uptake [27] was 2.73 %ID. For the same molecule, the Drug uptake [28] was 10.45 %ID, the Drug uptake [29] was 19.96 %ID and the Drug uptake [30] was 6.19 %ID. For the same molecule, the Drug uptake [31] was 3.07 %ID, the Drug uptake [32] was 10.06 %ID and the Drug uptake [33] was 7.75 %ID. For the same molecule, the Drug uptake [34] was 14.02 %ID, the Drug uptake [35] was 4.43 %ID and the Drug uptake [36] was 1.46 %ID. For the same molecule, the Drug uptake [37] was 2.09 %ID, the Drug uptake [38] was 4.94 %ID and the Drug uptake [39] was 0.76 %ID.
